In PubChem BioAssay AID328 (DTP/NCI, 2004):
Values joined by “and” are separate entries in the source; they are usually repeats but may differ in a detail not shown here. Equal values may be shown once. Toxic doses and inconclusive results are not listed.

System: BDF1 mice, P388 leukemia ip, median survival T/C
Test: NCI In Vivo Anticancer Drug Screen. Data for tumor model P388 Leukemia (intraperitoneal) in B6D2F1 (BDF1) mice
Conditions: endpoint: median survival time, higher = longer survival
In short: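 Each value expresses how treatment altered survival: treated-mouse outcome over vehicle-mouse outcome, both groups bearing the transplanted tumour.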

[1] = dose: 100.0 mg/kg/injection, schedule: Q04DX003 (ip), vehicle: Klucel (hydroxypropylcellulose) (HPC)
[2] = dose: 100.0 mg/kg/injection, schedule: Q04DX003 (ip), vehicle: saline with Tween-80
[3] = dose: 200.0 mg/kg/injection, schedule: Q04DX003 (ip), vehicle: saline with Tween-80
[4] = dose: 100.0 mg/kg/injection, schedule: Q04DX003 (ip), vehicle: saline sonified
[5] = dose: 200.0 mg/kg/injection, schedule: Q04DX003 (ip), vehicle: saline sonified
[6] = dose: 400.0 mg/kg/injection, schedule: Q04DX003 (ip), vehicle: saline sonified
[7] = dose: 50.0 mg/kg/injection, schedule: Q01DX005 (ip), vehicle: saline with Tween-80
[8] = dose: 12.5 mg/kg/injection, schedule: Q01DX009 (ip), vehicle: saline with Tween-80
[9] = dose: 25.0 mg/kg/injection, schedule: Q01DX009 (ip), vehicle: saline with Tween-80
[10] = dose: 50.0 mg/kg/injection, schedule: Q01DX009 (ip), vehicle: saline with Tween-80
[11] = dose: 50.0 mg/kg/injection, schedule: Q04DX003 (ip), vehicle: saline with Tween-80
[12] = dose: 37.5 mg/kg/injection, schedule: Q01DX009 (ip), vehicle: saline with Tween-80
[13] = dose: 75.0 mg/kg/injection, schedule: Q01DX009 (ip), vehicle: saline with Tween-80
[14] = dose: 150.0 mg/kg/injection, schedule: Q01DX009 (ip), vehicle: saline with Tween-80
[15] = dose: 100.0 mg/kg/injection, schedule: Q01DX009 (ip), vehicle: saline with Tween-80

## O=C1C(c2ccccc2)=S=C2Sc3ccccc3N12
dose: 25.0 mg/kg/injection, schedule: Q01DX009 (ip), vehicle: Klucel (hydroxypropylcellulose) (HPC)
  T/C: 100 % of control
dose: 25.0 mg/kg/injection, schedule: Q04DX003 (ip), vehicle: Klucel (hydroxypropylcellulose) (HPC)
  T/C: 90 % of control
dose: 50.0 mg/kg/injection, schedule: Q01DX009 (ip), vehicle: Klucel (hydroxypropylcellulose) (HPC)
  T/C: 110 % of control
dose: 50.0 mg/kg/injection, schedule: Q04DX003 (ip), vehicle: Klucel (hydroxypropylcellulose) (HPC)
  T/C: 90 % of control
dose: 100.0 mg/kg/injection, schedule: Q01DX009 (ip), vehicle: Klucel (hydroxypropylcellulose) (HPC)
  T/C: 105 % of control
[1]
  T/C: 100 % of control

## ON=C(Cc1ccccc1)Cc1ccccc1
[2]
  T/C: 100 % of control
[3]
  T/C: 109 % of control
dose: 400.0 mg/kg/injection, schedule: Q04DX003 (ip), vehicle: saline with Tween-80
  T/C: 109 % of control

## CCOC(=O)c1c[nH]c2ccccc2c1=O
dose: 100.0 mg/kg/injection, schedule: Q04DX002 (ip), vehicle: saline
  T/C: 107 % of control
dose: 200.0 mg/kg/injection, schedule: Q04DX002 (ip), vehicle: saline
  T/C: 111 % of control
dose: 400.0 mg/kg/injection, schedule: Q04DX002 (ip), vehicle: saline
  T/C: 102 % of control

## COc1ccc(C(C)(C#N)Nc2ccccc2)cc1 (stereo not drawn)
dose: 50.0 mg/kg/injection, schedule: Q04DX003 (ip), vehicle: saline sonified
  T/C: 100 % of control
[4]
  T/C: 100 % of control
[5]
  T/C: 100 % of control

## CCC12CCC(=O)NC1Cc1[nH]c3c(OC)cccc3c1C2 (stereo not drawn)
[4]
  T/C: 100 % of control
[5]
  T/C: 100 % of control
[6]
  T/C: 109 % of control

## ClC(Cl)(Cl)CC(Br)c1ccccc1 (stereo not drawn)
[4]
  T/C: 91 % of control
[5]
  T/C: 100 % of control
[6]
  T/C: 100 % of control

## CC(Oc1ccccc1)C(=O)N=c1scc(-c2ccc(Br)cc2)n1-c1cccc2ccccc12 (stereo not drawn)
dose: 12.5 mg/kg/injection, schedule: Q01DX009 (ip), vehicle: gum acacia
  T/C: 110 % of control
dose: 50.0 mg/kg/injection, schedule: Q01DX009 (ip), vehicle: gum acacia
  T/C: 118 % of control

## Cc1ccc(S(=O)(=O)OCCN(CCOS(=O)(=O)c2ccc(C)cc2)c2ccc(C=O)cc2)cc1
dose: 66.0 mg/kg/injection, schedule: Q04DX003 (ip), vehicle: saline with Tween-80
  T/C: 191 % of control
[2]
  T/C: 250 % of control
dose: 150.0 mg/kg/injection, schedule: Q04DX003 (ip), vehicle: saline with Tween-80
  T/C: 204 % of control

## COC(=O)C1CSC2(CCCN(Cc3ccccc3)C2)N1 (stereo not drawn)
dose: 50.0 mg/kg/injection, schedule: Q01DX009 (ip), vehicle: saline
  T/C: 113 % of control
dose: 100.0 mg/kg/injection, schedule: Q01DX009 (ip), vehicle: saline
  T/C: 119 % of control
dose: 200.0 mg/kg/injection, schedule: Q01DX009 (ip), vehicle: saline
  T/C: 96 % of control

## O=c1oc2ccccc2n1Cc1ccc(Cl)cc1
dose: 25.0 mg/kg/injection, schedule: Q01DX005 (ip), vehicle: saline with Tween-80
  T/C: 92 % of control
[7]
  T/C: 99 % of control
dose: 200.0 mg/kg/injection, schedule: Q01DX005 (ip), vehicle: saline with Tween-80
  T/C: 94 % of control

## Cc1cc(Br)c2nsnc2c1[N+](=O)[O-]
[7]
  T/C: 118 % of control
dose: 400.0 mg/kg/injection, schedule: Q01DX005 (ip), vehicle: saline with Tween-80
  T/C: 118 % of control

## Cc1cc2nc(Oc3ccccc3)nc(=O)n2c(C)n1
[8]
  T/C: 109 % of control
[9]
  T/C: 114 % of control
[10]
  T/C: 97 % of control

## CC[n+]1cc(-c2ccc(NC(=O)/C=C\c3ccc(C(=O)Nc4ccc(-c5c[n+](CC)c(N)nc5N)cc4)cc3)cc2)c(N)nc1N
dose: 33.0 mg/kg/injection, schedule: Q04DX003 (ip), vehicle: saline with Tween-80
  T/C: 195 % of control
[11]
  T/C: 272 % of control
dose: 75.0 mg/kg/injection, schedule: Q04DX003 (ip), vehicle: saline with Tween-80
  T/C: 272 % of control

## C[N+](C)(Cn1nc(Cl)c2ccc([N+](=O)[O-])cc21)Cn1nc(Cl)c2ccc([N+](=O)[O-])cc21
[2]
  T/C: 100 % of control
[3]
  T/C: 108 % of control

## C=Cn1ccnc1C.C=Cn1ccnc1C.CC(=O)CC(C)=O.CC(=O)CC(C)=O.[Ni]
dose: 12.5 mg/kg/injection, schedule: Q04DX002 (ip), vehicle: saline
  T/C: 119 % of control
dose: 25.0 mg/kg/injection, schedule: Q04DX002 (ip), vehicle: saline
  T/C: 117 % of control
dose: 50.0 mg/kg/injection, schedule: Q04DX002 (ip), vehicle: saline
  T/C: 112 % of control

## Cc1cc(=O)[nH]c2c1CCCC2
[12]
  T/C: 92 % of control
[13]
  T/C: 99 % of control and 118 % of control
[14]
  T/C: 103 % of control
dose: 300.0 mg/kg/injection, schedule: Q01DX009 (ip), vehicle: saline with Tween-80
  T/C: 91 % of control

## CN=C1c2ccccc2C2(c3ccccc3)C1N2C (stereo not drawn)
[12]
  T/C: 104 % of control
[13]
  T/C: 109 % of control
[14]
  T/C: 118 % of control

## O=C1c2ccccc2C(=O)N1Cc1ccc([N+](=O)[O-])cc1
[8]
  T/C: 97 % of control
[9]
  T/C: 96 % of control
[10]
  T/C: 97 % of control
[15]
  T/C: 92 % of control

## C/C=C1/CC(C)C(C)(O)C(=O)OCC2CCN3CCC(OC1=O)C23 (stereo not drawn)
dose: 25.0 mg/kg/injection, schedule: Q01DX010 (ip), vehicle: saline
  T/C: 111 % of control
dose: 50.0 mg/kg/injection, schedule: Q01DX010 (ip), vehicle: saline
  T/C: 116 % of control
dose: 100.0 mg/kg/injection, schedule: Q01DX010 (ip), vehicle: saline
  T/C: 116 % of control

## ClCCN(CCCl)CCNc1ccnc2cc(Cl)ccc12
dose: 0.13 mg/kg/injection, schedule: Q01DX009 (ip), vehicle: saline
  T/C: 105 % of control
dose: 0.5 mg/kg/injection, schedule: Q01DX009 (ip), vehicle: saline
  T/C: 100 % of control
dose: 1.0 mg/kg/injection, schedule: Q04DX003 (ip), vehicle: saline
  T/C: 172 % of control
dose: 1.32 mg/kg/injection, schedule: Q01DX009 (ip), vehicle: saline
  T/C: 154 % of control
dose: 2.0 mg/kg/injection, schedule: Q01DX009 (ip), vehicle: saline
  T/C: 154 % of control
dose: 2.0 mg/kg/injection, schedule: Q04DX003 (ip), vehicle: saline
  T/C: 109 % of control
dose: 3.0 mg/kg/injection, schedule: Q01DX009 (ip), vehicle: saline
  T/C: 181 % of control
dose: 4.0 mg/kg/injection, schedule: Q04DX003 (ip), vehicle: saline
  T/C: 154 % of control
dose: 6.0 mg/kg/injection, schedule: Q04DX003 (ip), vehicle: saline
  T/C: 159 % of control
dose: 12.5 mg/kg/injection, schedule: Q04DX003 (ip), vehicle: saline
  T/C: 163 % of control
dose: 25.0 mg/kg/injection, schedule: Q04DX003 (ip), vehicle: saline
  T/C: 86 % of control

## NC(N)=Nc1cccc(C(F)(F)F)c1
[10]
  T/C: 94 % of control
[15]
  T/C: 100 % of control
dose: 200.0 mg/kg/injection, schedule: Q01DX009 (ip), vehicle: saline with Tween-80
  T/C: 109 % of control

## COC1OCC(N=[N+]=[N-])C2OC12 (stereo not drawn)
dose: 25.0 mg/kg/injection, schedule: Q01DX009 (ip), vehicle: water
  T/C: 96 % of control
dose: 50.0 mg/kg/injection, schedule: Q01DX009 (ip), vehicle: water
  T/C: 102 % of control
dose: 100.0 mg/kg/injection, schedule: Q01DX009 (ip), vehicle: water
  T/C: 119 % of control
dose: 200.0 mg/kg/injection, schedule: Q01DX009 (ip), vehicle: water
  T/C: 102 % of control

## c1ccc(CNCCOB(OCCNCc2ccccc2)OCCNCc2ccccc2)cc1
[1]
  T/C: 100 % of control
dose: 200.0 mg/kg/injection, schedule: Q04DX003 (ip), vehicle: Klucel (hydroxypropylcellulose) (HPC)
  T/C: 104 % of control
dose: 400.0 mg/kg/injection, schedule: Q04DX003 (ip), vehicle: Klucel (hydroxypropylcellulose) (HPC)
  T/C: 100 % of control

## C=CCC1CCSC1=O (stereo not drawn)
dose: 25.0 mg/kg/injection, schedule: Q04DX003 (ip), vehicle: saline with Tween-80
  T/C: 100 % of control and 115 % of control
[11]
  T/C: 103 % of control and 106 % of control
[2]
  T/C: 101 % of control and 103 % of control and 119 % of control
[3]
  T/C: 108 % of control

## CCCCCCCCCCCCCCCC(=O)N(C/C=C/CN(CCCN(C)C)C(=O)CCCCCCCCCCCCCCC)CCCN(C)C
dose: 1.56 mg/kg/injection, schedule: Q01DX009 (ip), vehicle: saline with Tween-80
  T/C: 95 % of control
dose: 3.13 mg/kg/injection, schedule: Q01DX009 (ip), vehicle: saline with Tween-80
  T/C: 100 % of control
dose: 6.25 mg/kg/injection, schedule: Q01DX009 (ip), vehicle: saline with Tween-80
  T/C: 113 % of control
[8]
  T/C: 95 % of control and 100 % of control
